Reference: patent US20230082430A1 (C4 Therapeutics, Inc., priority 2019, published 2023)
pIC50: −log10 of the molar value.

Test system: NCIH929.1 cells
Experiment: Cell viability assay for Table 2 (CellTiter-Glo 2.0, ATP quantification, 96 hr)
Assay type: cell-based
Conditions: 96 h, NCIH929.1 cell viability, 96 hr, top concentration 1 μM, 14 points half log titration; read-out: IC50
From the text: Cell Viability Assay for Table 2
CellTiter-Glo® 2.0 Assay was purchased from Promega (Madison, Wis., USA). NCIH929.1 cell line was purchased from ATCC (Manassas, Va., USA). Cell culture flasks and 384-well microplates were acquired from VWR (Radnor, Pa., USA).

| Structure (SMILES) | pIC50 |
| --- | --- |
| O=C1CCC(N2C(=O)c3cccc4c(Cc5cnn(C6CCN(C7CCCC78CCC8)CC6)c5)ccc2c34)C(=O)N1 (single isomer, unassigned) [Compound 178, 3-[2-oxo-6-[[1-[1-[spiro[3.4]octan-8-yl]-4-piperidyl]pyrazol-4-yl]methyl]benzo[cd]indol-1-yl]piperidine-2,6-dione] | > 9.00 |
| O=C1CCC(N2C(=O)c3cccc4c(Cc5cnn(C6CCN(C(=O)c7ccccn7)CC6)c5)ccc2c34)C(=O)N1 (stereo not shown) [Compound 46, 3-(2-oxo-6-((1-(1-picolinoylpiperidin-4-yl)-1H-pyrazol-4-yl)methyl)benzo[cd]indol-1(2H)-yl)piperidine-2,6-dione] | > 9.00 |
| O=C1CCC(N2C(=O)c3cccc4c(Cc5ccc(CN6CCN(c7ccccc7F)CC67CC7)cc5)ccc2c34)C(=O)N1 (stereo not shown) [Compound 135, 3-[6-[[4-[[7-(2-fluorophenyl)-4,7-diazaspiro[2.5]octan-4-yl]methyl]phenyl]methyl]-2-oxo-benzo[cd]indol-1-yl]piperidine-2,6-dione] | > 9.00 |
| CC1(n2cc(Cc3ccc4c5c(cccc35)C(=O)N4C3CCC(=O)NC3=O)cn2)CCN(C(=O)C23CC(CO2)C3)CC1 (stereo not shown) [Compound 90, 3-(6-((1-(1-(2-oxabicyclo[2.1.1]hexane-1-carbonyl)-4-methylpiperidin-4-yl)-1H-pyrazol-4-yl)methyl)-2-oxobenzo[cd]indol-1(2H)-yl)piperidine-2,6-dione] | > 9.00 |
| O=C1CCC(N2C(=O)c3cccc4c(Cc5cnn(C6CCN(C(=O)C7(CO)CCC7)CC6)c5)ccc2c34)C(=O)N1 (stereo not shown) [Compound 205, 3-[6-[[1-[1-[1-(hydroxymethyl)cyclobutanecarbonyl]-4-piperidyl]pyrazol-4-yl]methyl]-2-oxo-benzo[cd]indol-1-yl]piperidine-2,6-dione] | > 9.00 |
| O=C1CCC(N2C(=O)c3cccc4c(Cc5cnn(C6CCN(C7CC8(CCC8)C7)CC6)c5)ccc2c34)C(=O)N1 (stereo not shown) [Compound 288, 3-[2-oxo-6-[[1-(1-spiro[3.3]heptan-2-yl-4-piperidyl)pyrazol-4-yl]methyl]benzo[cd]indol-1-yl]piperidine-2,6-dione] | > 9.00 |
| O=C1CCC(N2C(=O)c3cccc4c(Cc5cnn(C6(CO)CCN(C(=O)C7(C(F)(F)F)CC7)CC6)c5)ccc2c34)C(=O)N1 (stereo not shown) [Compound 195, 3-[6-[[1-[4-(hydroxymethyl)-1-[1-(trifluoromethyl)cyclopropanecarbonyl]-4-piperidyl]pyrazol-4-yl]methyl]-2-oxo-benzo[cd]indol-1-yl]piperidine-2,6-dione] | > 9.00 |
| O=C1CCC(N2C(=O)c3cccc4c(Cc5ccc(CN6CCOCC6)c(F)c5)ccc2c34)C(=O)N1 (stereo not shown) [Compound 278, 3-[6-{[3-fluoro-4-(morpholinomethyl)phenyl]methyl}-2-oxo-benzo[cd]indol-1-yl]piperidine-2,6-dione] | > 9.00 |
| N#CC1(CN2CCC(n3cc(Cc4ccc5c6c(cccc46)C(=O)N5C4CCC(=O)NC4=O)cn3)CC2)CCC1 (stereo not shown) [Compound 60, 1-((4-(4-((1-(2,6-dioxopiperidin-3-yl)-2-oxo-1,2-dihydrobenzo[cd]indol-6-yl)methyl)-1H-pyrazol-1-yl)piperidin-1-yl)methyl)cyclobutane-1-carbonitrile] | > 9.00 |
| COC1(CN2CCC(n3cc(Cc4ccc5c6c(cccc46)C(=O)N5C4CCC(=O)NC4=O)cn3)CC2)CC1 (stereo not shown) [Compound 66, 3-(6-((1-(1-((1-methoxycyclopropyl)methyl)piperidin-4-yl)-1H-pyrazol-4-yl)methyl)-2-oxobenzo[cd]indol-1(2H)-yl)piperidine-2,6-dione] | > 9.00 |
| CC1(n2cc(Cc3ccc4c5c(cccc35)C(=O)N4C3CCC(=O)NC3=O)cn2)CCN(C(=O)C2(C#N)CCCCC2)CC1 (stereo not shown) [Compound 72, 1-(4-(4-((1-(2,6-dioxopiperidin-3-yl)-2-oxo-1,2-dihydrobenzo[cd]indol-6-yl)methyl)-1H-pyrazol-1-yl)-4-methylpiperidine-1-carbonyl)cyclohexane-1-carbonitrile] | > 9.00 |
| CC(C)(C)OC(=O)N1CCC(n2cc(C(=O)c3ccc4c5c(cccc35)C(=O)N4C3CCC(=O)NC3=O)cn2)CC1 (stereo not shown) [Compound 143, tert-butyl 4-(4-(1-(2,6-dioxopiperidin-3-yl)-2-oxo-1,2-dihydrobenzo[cd]indole-6-carbonyl)-1H-pyrazol-1-yl)piperidine-1-carboxylate] | > 6.00 |
| O=C1CCC(N2C(=O)c3cccc4c(Cc5ccc(CN6CCN(C(=O)c7ccccc7)CC6)cc5)ccc2c34)C(=O)N1 (stereo not shown) [Compound 111, 3-(6-(4-((4-benzoylpiperazin-1-yl)methyl)benzyl)-2-oxobenzo[cd]indol-1(2H)-yl)piperidine-2,6-dione] | > 9.00 |
| N#Cc1ccc2c3c(cccc13)C(=O)N2C1CCC(=O)NC1=O (stereo not shown) [Compound 145, 1-(2,6-dioxopiperidin-3-yl)-2-oxo-1,2-dihydrobenzo[cd]indole-6-carbonitrile] | < 6.00 |
| O=C1CCC(N2C(=O)c3cccc4c(Cc5ccc(CN6CCS(=O)(=O)CC6)cc5)ccc2c34)C(=O)N1 (stereo not shown) [Compound 122, 3-(6-(4-((1,4-dioxidothiomorpholino)methyl)benzyl)-2-oxobenzo[cd]indol-1(2H)-yl)piperidine-2,6-dione] | > 9.00 |
| CC1(C(=O)N2CCC(n3cc(Cc4cnc5c6c(cccc46)C(=O)N5C4CCC(=O)NC4=O)cn3)CC2)CCC1 (stereo not shown) [Compound 289, 3-[20-[[1-[1-(1-methylcyclobutanecarbonyl)-4-piperidyl]pyrazol-4-yl]methyl]-26-oxo-30,35-diazatricyclododeca-1,3(18),5(20),17(21),22(30)-pentaen-35-yl]piperidine-2,6-dione] | > 7.00 |
| CC(C)(C)CN1CCC(C)(n2cc(Cc3ccc4c5c(cccc35)C(=O)N4C3CCC(=O)NC3=O)cn2)CC1 (stereo not shown) [Compound 104, 3-(6-((1-(4-methyl-1-neopentylpiperidin-4-yl)-1H-pyrazol-4-yl)methyl)-2-oxobenzo[cd]indol-1(2H)-yl)piperidine-2,6-dione] | > 9.00 |
| O=C1CCC(N2C(=O)c3cccc4c(Cc5ccc(CN6CCOCC6)cc5)cnc2c34)C(=O)N1 (racemic) [Compound 221, 3-[20-[[4-(morpholinomethyl)phenyl]methyl]-25-oxo-27,30-diazatricyclododeca-(2),1(18),7(20),19(21),22(27)-pentaen-30-yl]piperidine-2,6-dione] | > 9.00 |
| CC1(CN2CCC(n3cc(Cc4ccc5c6c(cccc46)C(=O)N5C4CCC(=O)NC4=O)cn3)CC2)CC1 (single isomer, unassigned) [Compound 234, 3-[6-[[1-[1-[(1-methylcyclopropyl)methyl]-4-piperidyl]pyrazol-4-yl]methyl]-2-oxo-benzo[cd]indol-1-yl]piperidine-2,6-dione] | > 9.00 |
| CC1(n2cc(Cc3ccc4c5c(cccc35)C(=O)N4C3CCC(=O)NC3=O)cn2)CCN(C(=O)C23COC(C2)C3)CC1 (single isomer, unassigned) [Compound 238, 3-[6-[[1-[4-methyl-1-(2-oxabicyclo[2.1.1]hexane-4-carbonyl)-4-piperidyl]pyrazol-4-yl]methyl]-2-oxo-benzo[cd]indol-1-yl]piperidine-2,6-dione] | > 9.00 |
| N#CC1(C(=O)N2CCC(n3cc(Cc4ccc5c6c(cccc46)C(=O)N5C4CCC(=O)NC4=O)cn3)CC2)CCC1 (stereo not shown) [Compound 39, 1-(4-(4-((1-(2,6-dioxopiperidin-3-yl)-2-oxo-1,2-dihydrobenzo[cd]indol-6-yl)methyl)-1H-pyrazol-1-yl)piperidine-1-carbonyl)cyclobutane-1-carbonitrile] | > 9.00 |
| O=C1CCC(N2C(=O)c3cccc4c(Cc5ccc(C6(N7CCN(c8ccccc8F)CC7)CC6)cc5)ccc2c34)C(=O)N1 (stereo not shown) [Compound 264, 3-[6-(4-{1-[4-(2-Fluoro-phenyl)-piperazin-1-yl]-cyclopropyl}-benzyl)-2-oxo-2H-benzo[cd]indol-1-yl]-piperidine-2,6-dione] | > 9.00 |
| O=C1CCC(N2C(=O)c3cccc4c(Cc5ccc(CN6CCN(c7ccccc7)CC6)cc5)ccc2c34)C(=O)N1 (stereo not shown) [Compound 210, 3-(2-oxo-6-(4-((4-phenylpiperazin-1-yl)methyl)benzyl)benzo[cd]indol-1(2H)-yl)piperidine-2,6-dione] | > 9.00 |
| CC(C)(CO)C(=O)N1CCC(C)(n2cc(Cc3ccc4c5c(cccc35)C(=O)N4C3CCC(=O)NC3=O)cn2)CC1 (stereo not shown) [Compound 98, 3-(6-((1-(1-(3-hydroxy-2,2-dimethylpropanoyl)-4-methylpiperidin-4-yl)-1H-pyrazol-4-yl)methyl)-2-oxobenzo[cd]indol-1(2H)-yl)piperidine-2,6-dione] | > 9.00 |
| O=C1CCC(N2C(=O)c3cccc4c(Cc5ccc(CN6CCN(CC(F)(F)F)CC6)cc5)ccc2c34)C(=O)N1 (stereo not shown) [Compound 161, 3-(2-Oxo-6-{4-[4-(2,2,2-trifluoro-ethyl)-piperazin-1-ylmethyl]-benzyl}-2H-benzo[cd]indol-1-yl)-piperidine-2,6-dione] | > 9.00 |
| N#Cc1ccc(N2CCN(Cc3cnn(Cc4ccc5c6c(cccc46)C(=O)N5C4CCC(=O)NC4=O)c3)CC2)c(F)c1 (stereo not shown) [Compound 128, 4-[4-[[1-[[1-(2,6-dioxo-3-piperidyl)-2-oxo-benzo[cd]indol-6-yl]methyl]pyrazol-4-yl]methyl]piperazin-1-yl]-3-fluoro-benzonitrile] | > 9.00 |
| O=C1CCC(N2C(=O)c3cccc4c(Cc5cnn(C6CCN(C(=O)C78CC(CO7)C8)CC6)c5)ccc2c34)C(=O)N1 (stereo not shown) [Compound 48, 3-(6-((1-(1-(2-oxabicyclo[2.1.1]hexane-1-carbonyl)piperidin-4-yl)-1H-pyrazol-4-yl)methyl)-2-oxobenzo[cd]indol-1(2H)-yl)piperidine-2,6-dione] | > 9.00 |

Same assay, conditions: NCIH929.1 cell viability, 96 hr, top concentration 1 μM, 14 points half log titration; read-out: IC50

| Structure (SMILES) | pIC50 |
| --- | --- |
| CC1(CN2CCC(n3cc(Cc4ccc5c6c(cccc46)C(=O)N5C4CCC(=O)NC4=O)cn3)C(F)(F)C2)CCC1 (single isomer, unassigned) [Compound 187, 3-[6-[[1-[3,3-difluoro-1-[(1-methylcyclobutyl)methyl]-4-piperidyl]pyrazol-4-yl]methyl]-2-oxo-benzo[cd]indol-1-yl]piperidine-2,6-dione] | > 9.00 |
